Laboratory results as given in patent US20240025907A1, “QUINAZOLINE PAN-KRas INHIBITORS” (Mirati Therapeutics, Inc., priority 2022, published 2024).

Columns and labels:
[1] = tested on: KRas-mediated Phosphorylation of ERK in AsPC-1 cells; assay: Cisbio HTRF pERK assay, AsPC-1 cells; type: cell-based; settings: Homo sapiens, ASPC1, 3 h, 3 hrs compound, read-out: Inhibition (HTRF IC50 nM) of KRas-mediated Phosphorylation of ERK, AsPC-1
[2] = tested on: KRas-mediated Phosphorylation of ERK in A549 cells; assay: Cisbio HTRF pERK assay, A549 cells; type: cell-based; settings: Homo sapiens, A549, 3 h, A549 cells, 3 hrs compound; read-out: Inhibition (HTRF IC50 nM) of KRas-mediated Phosphorylation of ERK, A549
[3] = tested on: KRas-mediated Phosphorylation of ERK in H358 cells; assay: Cisbio HTRF pERK assay, H358 cells; type: cell-based; settings: Homo sapiens, NCI-H358, 3 h, H358 cells, 3 hrs compound; read-out: Inhibition (HTRF IC50 nM) of KRas-mediated Phosphorylation of ERK, H358
[4] = tested on: KRas-mediated Phosphorylation of ERK in H460 cells; assay: Cisbio HTRF pERK assay, H460 cells; type: cell-based; settings: Homo sapiens, NCI-H460, 3 h, H460 cells, 3 hrs compound; read-out: Inhibition (HTRF IC50 nM) of KRas-mediated Phosphorylation of ERK, H460
KRas^G12D = biological target: T1, KRas^G12D (Homo sapiens, UniProt P01116, G12D); assay: KRas TR-FRET tracer displacement binding assay, G12D; settings: 60-minute incubation
T1 construct: Biotinylated KRas (corresponding to amino acids 1-169, produced at Accelegan Inc.); biotin (biotinylated); purchased Accelegan Inc
T1 sequence (P01116 1-169 isoform P01116-2 G12D): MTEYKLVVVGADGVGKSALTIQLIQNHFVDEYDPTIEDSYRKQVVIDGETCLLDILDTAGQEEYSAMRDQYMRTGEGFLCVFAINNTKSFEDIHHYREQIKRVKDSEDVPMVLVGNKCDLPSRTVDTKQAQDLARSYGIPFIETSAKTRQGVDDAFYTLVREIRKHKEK
Method in brief: (§1)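 TR-FRET displacement: biotinylated KRas (aa 1-169) incubated with Cy5-labelled tracer, terbium streptavidin and compound (1% DMSO final) in 50 mM HEPES pH 7.5, 5 mM MgCl2, 0.005% Tween-20, 1 mM DTT. Read after 60-minute room-temperature incubation.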

[5] = tested on: KRas-mediated Phosphorylation of ERK in HCT116 cells; assay: Cisbio HTRF pERK assay, HCT116 cells; type: cell-based; settings: Homo sapiens, HCT-116, 3 h, HCT116 cells, 3 hrs compound; read-out: Inhibition (HTRF IC50 nM) of KRas-mediated Phosphorylation of ERK, HCT116
KRas^G12R = biological target: T2, KRas^G12R (Homo sapiens, UniProt P01116, G12R); assay: KRas TR-FRET tracer displacement binding assay, G12R; settings: 60-minute incubation
T2 construct: Biotinylated KRas (corresponding to amino acids 1-169, produced at Accelegan Inc.); biotin (biotinylated); purchased Accelegan Inc
T2 sequence (P01116 1-169 isoform P01116-2 G12R): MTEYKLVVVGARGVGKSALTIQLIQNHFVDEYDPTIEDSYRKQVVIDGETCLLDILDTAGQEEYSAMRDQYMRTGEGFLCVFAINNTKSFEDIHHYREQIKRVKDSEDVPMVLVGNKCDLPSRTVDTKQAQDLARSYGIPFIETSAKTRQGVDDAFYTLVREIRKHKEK
Procedure: This Example illustrates that exemplary compounds of the present invention bind to KRas and are capable of displacing a labeled tracer ligand occupying the KRas binding site. KRas^WT, KRas^G12A, KRas^G12C, KRas^G12D, KRas^G12R, KRas^G12S, KRas^G12V, KRas^G13D, or KRas^Q61H was used in the assay.
The ability of a compound to bind to KRas was measured using a TR-FRET displacement assay. Biotinylated KRas (corresponding to amino acids 1-169, produced at Accelegan Inc.) was incubated with custom made Cy5 labelled tracer, terbium streptavidin (Cisbio Inc.) and compound (1% DMSO final) in buffer (50 mM HEPES, pH 7.5, 5 mM MgCl2, 0.005% Tween-20 and 1 mM DTT). After a 60-minute incubation at room temperature, the reaction was measured using a BMG LABTECH CLARIO star Plus via TR-FRET. […] The POC values were fit to a 4-parameter IC50 equation and the IC50 value reported in Table 1 (selected Examples 172-222).

KRas^G12V = biological target: T3, KRas^G12V (Homo sapiens, UniProt P01116, G12V); assay: KRas TR-FRET tracer displacement binding assay, G12V; settings: 60-minute incubation
T3 construct: Biotinylated KRas (corresponding to amino acids 1-169, produced at Accelegan Inc.); biotin (biotinylated); purchased Accelegan Inc
T3 sequence (P01116 1-169 isoform P01116-2 G12V): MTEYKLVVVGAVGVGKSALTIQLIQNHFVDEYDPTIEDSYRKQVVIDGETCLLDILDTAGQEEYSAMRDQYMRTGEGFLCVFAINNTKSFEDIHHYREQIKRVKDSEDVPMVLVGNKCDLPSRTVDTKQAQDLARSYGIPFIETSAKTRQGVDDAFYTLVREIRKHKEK
Method in brief: as §1

[6] = tested on: KRas-mediated Phosphorylation of ERK in H727 cells; assay: Cisbio HTRF pERK assay, H727 cells; type: cell-based; settings: Homo sapiens, NCI-H727, 3 h, 3 hrs compound, read-out: Inhibition (HTRF IC50 nM) of KRas-mediated Phosphorylation of ERK, H727

IC50 [1] [nM] | IC50 [2] [nM] | IC50 [3] [nM] | IC50 [4] [nM] | IC50 (KRas^G12D) [nM] | IC50 [5] [nM] | IC50 (KRas^G12R) [nM] | IC50 (KRas^G12V) [nM] | IC50 [6] [nM] | SMILES
1280 | 490 | 185 | 445 | 313 | 1640 | 16 | 12 | 422 | CCc1c(F)ccc2cc(O)cc(-c3c(F)cc4c(N5CC(c6ccncc6)C5)nc(OC[C@@]56CCCN5C[C@H](F)C6)nc4c3F)c12 [Example 175, 4-(6,8-difluoro-2-(((2R,7aS)-2-fluorotetrahydro-1H-pyrrolizin-7a(5H)-yl)methoxy)-4-(3-(pyridin-4-yl)azetidin-1-yl)quinazolin-7-yl)-5-ethyl-6-fluoronaphthalen-2-ol]
4020 | 734 | 324 | 968 | 285 | 2260 | 9 | 9 | 694 | CCc1c(F)ccc2cc(O)cc(-c3c(F)cc4c(NCc5c[nH]c6ncccc56)nc(OC[C@@]56CCCN5C[C@H](F)C6)nc4c3F)c12 [Example 174, 4-(4-(((1H-pyrrolo[2,3-b]pyridin-3-yl)methyl)amino)-6,8-difluoro-2-(((2R,7aS)-2-fluorotetrahydro-1H-pyrrolizin-7a(5H)-yl)methoxy)quinazolin-7-yl)-5-ethyl-6-fluoronaphthalen-2-ol]
